Test [1] deals with T1, Cbl-b (Homo sapiens, UniProt Q13191).
T1 construct: Cbl-b-HiBit KI Jurkat Cells were purchased from Promega; host or cells: Cbl-b-HiBiT knock-in Jurkat cells
Put plainly: Cbl-b Degradation Method A (FACS, anti-Cbl-b antibody staining). In kind it is cell-based. The following applies: Cbl-b-HiBit KI Jurkat Cells, incubated at least 20 hours; for DC50: half maximal degradation, read-out: Cbl-b Degredation Method A IC50; for Dmax: Jurkat, maximum degradation observed, read-out: Cbl-b Degredation Method A Dmax (%). In a few lines: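 Cbl-b-HiBit KI Jurkat cells treated with compound for at least 20 h at 37 °C, then fixed, permeabilized and stained with anti-Cbl-b antibody plus anti-rabbit AF488 secondary. Cbl-b levels read by FACS; DC50 and Dmax (percent of control) derived.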

Test [2] deals with T1, Cbl-b. Kind of test: Cbl-b Degradation Method B (Nano-Glo HiBiT lytic detection). To be noted: Cbl-b-HiBit KI Jurkat Cells, incubated at least 6-24 hours; for DC50: half maximal degradation, read-out: Cbl-b Degredation Method B IC50; for Cbl-b Degredation Method B Dmax (%) / Dmax: maximum degradation observed; for Dmax: read-out: Cbl-b Degredation Method B Dmax (%). The test is classed as cell-based. In outline: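 Cbl-b-HiBiT knock-in Jurkat cells (20,000/well) were treated after ~24 h plating with an 11-point 1:3 series for 6-24 h at 37° C. Remaining Cbl-b measured by Nano-Glo HiBiT lytic luminescence. DC50 and Dmax expressed as % of control.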

Here are results for 11 compounds from patent US20260184710A1, “CASITAS B-LINEAGE LYMPHOMA PROTOONCOGENE B (CBL-B) DEGRADING COMPOUNDS AND ASSOCIATED METHODS OF USE” (Arvinas Operations, Inc., priority 2022, published 2026).

T1 sequence (Q13191 whole entry): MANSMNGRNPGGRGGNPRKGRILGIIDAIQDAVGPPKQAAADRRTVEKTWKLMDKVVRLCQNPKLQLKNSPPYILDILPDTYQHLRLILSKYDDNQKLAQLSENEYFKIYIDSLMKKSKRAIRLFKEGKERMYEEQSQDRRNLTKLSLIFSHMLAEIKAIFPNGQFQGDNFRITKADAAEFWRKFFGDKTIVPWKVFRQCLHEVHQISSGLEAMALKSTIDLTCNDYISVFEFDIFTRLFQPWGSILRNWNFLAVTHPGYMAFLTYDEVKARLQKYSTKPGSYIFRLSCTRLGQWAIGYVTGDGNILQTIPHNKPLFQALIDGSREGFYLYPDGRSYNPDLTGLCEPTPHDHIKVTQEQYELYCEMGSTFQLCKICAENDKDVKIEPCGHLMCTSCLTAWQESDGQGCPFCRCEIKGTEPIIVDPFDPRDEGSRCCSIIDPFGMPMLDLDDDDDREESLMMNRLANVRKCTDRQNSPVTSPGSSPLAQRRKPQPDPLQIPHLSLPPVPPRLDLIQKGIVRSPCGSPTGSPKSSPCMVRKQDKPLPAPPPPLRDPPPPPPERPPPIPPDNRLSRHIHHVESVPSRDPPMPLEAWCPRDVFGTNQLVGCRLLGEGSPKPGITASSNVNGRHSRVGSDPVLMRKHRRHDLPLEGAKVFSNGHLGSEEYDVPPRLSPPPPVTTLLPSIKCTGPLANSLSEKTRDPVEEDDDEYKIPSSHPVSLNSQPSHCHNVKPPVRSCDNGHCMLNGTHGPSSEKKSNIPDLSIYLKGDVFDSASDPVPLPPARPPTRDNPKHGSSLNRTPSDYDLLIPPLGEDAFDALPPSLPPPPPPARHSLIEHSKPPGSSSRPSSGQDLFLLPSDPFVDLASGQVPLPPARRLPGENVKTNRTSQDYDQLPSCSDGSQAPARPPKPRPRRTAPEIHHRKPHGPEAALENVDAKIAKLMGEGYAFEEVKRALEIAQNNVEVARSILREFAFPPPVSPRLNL

With `CC(C)n1c(=O)n(C2CCC(=O)NC2=O)c2cccc(N3CCC(O[C@H]4CC[C@H](CN5CCN(Cc6cc7c(c(C(F)(F)F)c6)CN(c6cccc([C@]8(Cc9nncn9C)C[C@H](C#N)C8)c6)C7=O)CC[C@@H]5C)CC4)CC3)c21` (stereo partly drawn) [Example 326, (1r,3r)-3-[3-(6-{[(5S)-5-methyl-4-{[(1r,4r)-4-({1-[1-(2,6-dioxopiperidin-3-yl)-2-oxo-3-(propan-2-yl)-2,3-dihydro-1H-1,3-benzodiazol-4-yl]piperidin-4-yl}oxy)cyclohexyl]methyl}-1,4-diazepan-1-yl]methyl}-1-oxo-4-(trifluoromethyl)-2,3-dihydro-1H-isoindol-2-yl)phenyl]-3-[(4-methyl-4H-1,2,4-triazol-3-yl)methyl]cyclobutane-1-carbonitrile], on Cbl-b [1], the DC50 fell in the range of 50 to 500 nM and the Dmax was 35 to 70%. In addition, at Cbl-b [2], the DC50 was less than 5 nM and the “Cbl-b Degredation Method B Dmax (%)” value is on record as “C (C ≤ 35)”.

As for `C[C@H]1C[C@@H](CN2CCC(CC3CCN(c4ccc5c(c4)C(=O)N(C4CCC(=O)NC4=O)C5=O)CC3)CC2)CN(Cc2cc3c(c(C(F)(F)F)c2)CN(c2cccc(C4(Cc5nncn5C)COC4)c2)C3=O)C1` (stereo partly drawn) [Example 93, 2-(2,6-dioxopiperidin-3-yl)-5-{4-[(1-{[(3S,5S)-5-methyl-1-{[2-(3-{3-[(4-methyl-4H-1,2,4-triazol-3-yl)methyl]oxetan-3-yl}phenyl)-3-oxo-7-(trifluoromethyl)-2,3-dihydro-1H-isoindol-5-yl]methyl}piperidin-3-yl]methyl}piperidin-4-yl)methyl]piperidin-1-yl}-2,3-dihydro-1H-isoindole-1,3-dione], on Cbl-b [1], the DC50 is 5 to 50 nM and the Dmax lay in the range of 35 to 70%. On Cbl-b [2], the DC50 was less than 5 nM and the Dmax was less than 35%.

Regarding `CC1c2nc(N3CCC(O[C@H]4CC[C@H](CN5CCN(Cc6cc7c(c(C(F)(F)F)c6)CN(c6cccc(C8(c9nncn9C)CCO8)c6)C7=O)C(C)(C)C5)CC4)CC3)ccc2C(=O)N1C1CCC(=O)NC1=O` (stereo partly shown) [Example 281, 3-[7-methyl-5-oxo-2-(4-{[(1r, 4r)-4-({3,3-dimethyl-4-[(2-{3-[2-(4-methyl-4H-1,2,4-triazol-3-yl)oxetan-2-yl]phenyl}-3-oxo-7-(trifluoromethyl)-2,3-dihydro-1H-isoindol-5-yl)methyl]piperazin-1-yl}methyl)cyclohexyl]oxy}piperidin-1-yl)-5H, 6H, 7H-pyrrolo[3,4-b]pyridin-6-yl]piperidine-2,6-dione], on Cbl-b [1], the DC50 lay within 5 to 50 nM and the Dmax fell in the range of 35 to 70%. Moreover, on Cbl-b [2], the DC50 is less than 5 nM and the “Cbl-b Degredation Method B Dmax (%)” value was “C (C ≤ 35)”.

For `Cc1cc(N2CCC(O[C@H]3CC[C@H](CN4CCN(Cc5cc(C(F)(F)F)c6cn(-c7cccc(C8(Cc9nncn9C)CC(C#N)C8)c7)nc6c5)C(C)(C)C4)CC3)CC2)c(F)c2c1C(=O)N(C1CCC(=O)NC1=O)C2` (stereo partly shown) [Example 292, (1r**,3r**)-3-(3-{6-[(2,2-dimethyl-4-{[(1r*,4r*)-4-({1-[2-(2,6-dioxopiperidin-3-yl)-4-fluoro-7-methyl-1-oxo-2,3-dihydro-1H-isoindol-5-yl]piperidin-4-yl}oxy)cyclohexyl]methyl}piperazin-1-yl)methyl]-4-(trifluoromethyl)-2H-indazol-2-yl}phenyl)-3-[(4-methyl-4H-1,2,4-triazol-3-yl)methyl]cyclobutane-1-carbonitrile], on Cbl-b [1], the DC50 fell in the range of 5 to 50 nM and the Dmax is less than 35%. The DC50 on Cbl-b [2] fell in the range of 50 to 500 nM.

Turning to `Cn1cnnc1[C@]1(c2cccc(N3Cc4c(cc(CN5CCC[C@H](CN6CCN(C[C@H]7CC[C@@H](OC8CCN(c9ccc%10c(c9F)CN(C9CCC(=O)NC9=O)C%10=O)CC8)CC7)CC6)C5)cc4C(F)(F)F)C3=O)c2)C[C@@H](C)C1` (stereo partly drawn) [Example 157, 3-[4-fluoro-1-oxo-5-(4-{[(1r,4r)-4-[(4-{[(3S)-1-[(3-oxo-2-{3-[(1r,3s)-3-methyl-1-(4-methyl-4H-1,2,4-triazol-3-yl)cyclobutyl]phenyl}-7-(trifluoromethyl)-2,3-dihydro-1H-isoindol-5-yl)methyl]piperidin-3-yl]methyl}piperazin-1-yl)methyl]cyclohexyl]oxy}piperidin-1-yl)-2,3-dihydro-1H-isoindol-2-yl]piperidine-2,6-dione], the DC50 on Cbl-b [1] and on Cbl-b [2] was less than 5 nM in each case. In addition, the Dmax was greater than 70% at Cbl-b [1] and 35 to 70% at Cbl-b [2].

As for `CC1c2nc(N3CCC(O[C@H]4CC[C@H](CN5CCC6(C5)CN(c5cc7c(c(C(F)(F)F)c5)CN(c5cccc([C@]8(Cc9nncn9C)C[C@@H](C#N)C8)c5)C7=O)C6)CC4)CC3)ccc2C(=O)N1C1CCC(=O)NC1=O` (stereo partly shown) [Example 178, (1r,3r)-3-[(4-methyl-4H-1,2,4-triazol-3-yl)methyl]-3-{3-[1-oxo-6-(6-{[(1r,4r)-4-({1-[6-(2,6-dioxopiperidin-3-yl)-7-methyl-5-oxo-5H,6H,7H-pyrrolo[3,4-b]pyridin-2-yl]piperidin-4-yl}oxy)cyclohexyl]methyl}-2,6-diazaspiro[3.4]octan-2-yl)-4-(trifluoromethyl)-2,3-dihydro-1H-isoindol-2-yl]phenyl}cyclobutane-1-carbonitrile], on Cbl-b [1], the DC50 was 5 to 50 nM and the Dmax fell in the range of 35 to 70%. For the same compound, at Cbl-b [2], the DC50 is less than 5 nM and the Dmax lay within 35 to 70%.

`Cn1cnnc1CC1(c2cccc(N3Cc4c(cc(CN5CCC(CN6CC7(C6)CN(c6ccc8c(c6)C(=O)N(C6CCC(=O)NC6=O)C8=O)C7)CC5)cc4C(F)(F)F)C3=O)c2)COC1` (stereo not shown) [Example 31, 2-(2,6-dioxopiperidin-3-yl)-5-{6-[(1-{[2-(3-{3-[(4-methyl-4H-1,2,4-triazol-3-yl)methyl]oxetan-3-yl}phenyl)-3-oxo-7-(trifluoromethyl)-2,3-dihydro-1H-isoindol-5-yl]methyl}piperidin-4-yl)methyl]-2,6-diazaspiro[3.3]heptan-2-yl}-2,3-dihydro-1H-isoindole-1,3-dione]: the DC50 on Cbl-b [1] and on Cbl-b [2] was greater than 500 nM throughout.

As to `CC1c2nc(N3CCC(O[C@H]4CC[C@H](CN5CCN(Cc6cc7c(c(C(F)(F)F)c6)CN(c6cccc([C@]8(Cc9nncn9C)C[C@@H](C#N)C8)c6)C7=O)CC5)CC4)CC3)ccc2C(=O)N1C1CCC(=O)NC1=O` (stereo partly shown) [Example 203, (1r,3r)-3-[(4-methyl-4H-1,2,4-triazol-3-yl)methyl]-3-(3-{1-oxo-6-[(4-{[(1r,4r)-4-({1-[6-(2,6-dioxopiperidin-3-yl)-7-methyl-5-oxo-5H,6H,7H-pyrrolo[3,4-b]pyridin-2-yl]piperidin-4-yl}oxy)cyclohexyl]methyl}piperazin-1-yl)methyl]-4-(trifluoromethyl)-2,3-dihydro-1H-isoindol-2-yl}phenyl)cyclobutane-1-carbonitrile], at Cbl-b [1], the DC50 was less than 5 nM and the Dmax is 35 to 70%. Also, at Cbl-b [2], the DC50 is less than 5 nM and the Dmax is 35 to 70%.

Regarding `Cn1cnnc1CC1(c2cccc(N3Cc4c(cc(N5CC6(CCN(CC7CCN(c8ccc9c(c8F)CN(C8CCC(=O)NC8=O)C9=O)CC7)CC6)C5)cc4C(F)(F)F)C3=O)c2)COC1` (stereo not shown) [Example 1, 3-{4-fluoro-5-[4-({2-[2-(3-{3-[(4-methyl-4H-1,2,4-triazol-3-yl)methyl]oxetan-3-yl}phenyl)-3-oxo-7-(trifluoromethyl)-2,3-dihydro-1H-isoindol-5-yl]-2,7-diazaspiro[3.5]nonan-7-yl}methyl)piperidin-1-yl]-1-oxo-2,3-dihydro-1H-isoindol-2-yl}piperidine-2,6-dione], the DC50 at Cbl-b [1] and at Cbl-b [2] was less than 5 nM throughout. For the same compound, the Dmax on Cbl-b [1] and on Cbl-b [2] was 35 to 70% in each case.

Regarding `Cn1cnnc1CC1(c2cccc(N3Cc4c(cc(N5CCC(CC6CN(c7ccc8c(c7)C(=O)N(C7CCC(=O)NC7=O)C8=O)C6)CC5)cc4C(F)(F)F)C3=O)c2)COC1` (stereo not shown) [Example 134, 2-(2,6-dioxopiperidin-3-yl)-5-[3-({1-[2-(3-{3-[(4-methyl-4H-1,2,4-triazol-3-yl)methyl]oxetan-3-yl}phenyl)-3-oxo-7-(trifluoromethyl)-2,3-dihydro-1H-isoindol-5-yl]piperidin-4-yl}methyl)azetidin-1-yl]-2,3-dihydro-1H-isoindole-1,3-dione], at Cbl-b [1], the DC50 lay in the range of 50 to 500 nM and the Dmax is less than 35%. For the same compound, the DC50 on Cbl-b [2] is greater than 500 nM.

With `Cn1cnnc1CC1(c2cccc(N3Cc4c(cc(N5CC6(CCN(CC7CCN(c8ccc9c(c8)C(=O)N(C8CCC(=O)NC8=O)C9=O)CC7)CC6)C5)cc4C(F)(F)F)C3=O)c2)COC1` (stereo not shown) [Example 115, 2-(2,6-dioxopiperidin-3-yl)-5-[4-({2-[2-(3-{3-[(4-methyl-4H-1,2,4-triazol-3-yl)methyl]oxetan-3-yl}phenyl)-3-oxo-7-(trifluoromethyl)-2,3-dihydro-1H-isoindol-5-yl]-2,7-diazaspiro[3.5]nonan-7-yl}methyl)piperidin-1-yl]-2,3-dihydro-1H-isoindole-1,3-dione], at Cbl-b [1], the DC50 was 5 to 50 nM and the Dmax lay in the range of 35 to 70%. Moreover, on Cbl-b [2], the DC50 was in the range of 5 to 50 nM and the Dmax lay within 35 to 70%.
